Data taken from patent publication US8895581B2, “1H-imidazo[4,5-c]quinolines” (Boehringer Ingelheim International GmbH, priority 2010, dated 2014).

Each compound was assayed against Recombinant human PDK1 enzyme (aa 52-556) (Homo sapiens (Human), UniProt O15530) (assay: PDK1 kinase assay). Details: 25 μM ATP solution with gamma-P33-ATP, PDKtide substrate, 90 min at RT.
Chain of Recombinant human PDK1 enzyme (aa 52-556) (O15530 52-556): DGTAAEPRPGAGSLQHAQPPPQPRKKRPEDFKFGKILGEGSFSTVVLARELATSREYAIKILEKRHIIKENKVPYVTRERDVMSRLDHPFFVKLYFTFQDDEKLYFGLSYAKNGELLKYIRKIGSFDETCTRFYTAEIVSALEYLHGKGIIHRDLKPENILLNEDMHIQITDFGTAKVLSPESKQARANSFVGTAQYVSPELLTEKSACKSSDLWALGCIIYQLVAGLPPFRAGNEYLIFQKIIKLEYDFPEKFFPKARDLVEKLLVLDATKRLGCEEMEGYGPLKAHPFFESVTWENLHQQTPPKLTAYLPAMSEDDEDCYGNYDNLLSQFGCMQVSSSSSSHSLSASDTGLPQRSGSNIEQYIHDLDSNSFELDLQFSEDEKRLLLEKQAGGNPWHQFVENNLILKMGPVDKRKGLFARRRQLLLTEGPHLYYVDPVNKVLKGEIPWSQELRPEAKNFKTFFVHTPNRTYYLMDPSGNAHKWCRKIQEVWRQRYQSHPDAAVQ
Assay type: biochemical
Experimental: The activity of the compounds according to the invention on the kinase PDK1 which inhibits the signal transduction pathway is determined in an in vitro kinase assay with recombinantly prepared protein:
Recombinant human PDK1 enzyme (aa 52-556) linked at its N-terminal end to His6 is isolated from baculovirus-infected insect cells. Purified enzyme may be obtained for example from the University of Dundee, Scotland. The following components are combined in a well of a 96-well round-based dish (Greiner bio-one, No. 650101): • 1. 15 μL of compound to be tested in varying concentrations (e.g. starting at 10 μM, and diluted in steps of 1:5) in APT buffer (50 mM Tris/Cl pH7.5; 0.05% β-mercaptoethanol; 10 mM Mg-acetate; 0.0166% Tween 20; 3.33% DMSO) • 2. 15 μL His6-PDK1 (aa 52-556) 3.33 ng/well) and PDKtide (KTFCGTPEYLAPEVRRE […]), synthesised by Pepceuticals Limited, Nottingham, United Kingdom; 25 μM final concentration); His6-PDK1 and PDKtide are together diluted accordingly in assay buffer (50 mM tris pH 7.5, 0.05% β-mercaptoethanol, 10 mM Mg-acetate); PDKtide is present in this mixture as an 83.3 μM solution. These 30 μl are routinely incubated for 30 min at RT. • 3. 20 μL ATP solution (25 μM ATP with 1.0 μCi/well gamma-P33-ATP). The final concentration of Tween 20 is 0.005%.
The reaction is started by adding the ATP solution and the mixture is incubated for 90 min at RT. At the start of the reaction the dishes are shaken gently. The reaction is stopped by the addition of 50 μL/well of 500 mM phosphoric acid (H3PO4) and incubated for about 20 min at RT. The precipitate is transferred by harvesting onto filter plates (96-well microtitre filter plate: UniFilter GF/C; Perkin Elmer; No. 6005174), then washed 6 times with 50 mM H3PO4 and dried at 60° C. Then the plate is stuck down with sealing tape, 25 μL/well of scintillation solution (Microscint 0; Perkin Elmer; No. 6013611) are added and the amount of P33 precipitated is measured using the Wallac Betacounter. The measured data are evaluated using Graphpad Prism software.
CC(C)N1CCC(n2cnc3cnc4ccc(C#CCNC(=O)c5cccn([C@@H](C)c6ccc(F)c(F)c6)c5=O)cc4c32)CC1 [III-2] gave an IC50 of 2 nM. Cc1cc(C(=O)NCC#Cc2ccc3ncc4nc(C)n(C(C)C)c4c3c2)c(=O)n([C@H](C)c2ccc(F)c(F)c2)n1 [II-1] gave an IC50 of 2 nM. With Cc1nc2cnc3ccc(C#CCNC(=O)c4ccnn(Cc5ccc(F)c(F)c5)c4=O)cc3c2n1C1CCN(C(C)C)CC1 [III-4] the IC50 was 21 nM. Cc1nc2cnc3ccc(C#CCNC(=O)c4cncn(Cc5ccc(F)c(F)c5)c4=O)cc3c2n1C1CCCOC1 (stereo not drawn) [III-28] was tested, and the IC50 was 2 nM. Cc1nc2cnc3ccc(C#CCNC(=O)c4c(C)n(C)n(Cc5ccc(F)c(F)c5)c4=O)cc3c2n1C(C)C [II-16] was tested, and the IC50 was 5 nM. Compound O=C(NCC#Cc1ccc2ncc3nc[nH]c3c2c1)c1cncn(Cc2ccc(F)c(F)c2)c1=O [I-1, 1-(3,4-difluoro-benzyl)-6-oxo-1,6-dihydro-pyrimidine-5-carboxylic acid [3-(1H-imidazo[4,5-c]quinolin-8-yl)-prop-2-ynyl]-amide] has an IC50 of 1 nM. O=C(NCC#Cc1ccc2ncc3ncn(C4CCNCC4)c3c2c1)c1cncn(Cc2ccc(F)c(F)c2)c1=O [I-14] showed an IC50 of 8 nM. In the case of CN(C)Cc1nc2cnc3ccc(C#CCNC(=O)c4cncn(Cc5ccc(F)c(F)c5)c4=O)cc3c2n1C [V-8, 1-(3,4-difluoro-benzyl)-6-oxo-1,6-dihydro-pyrimidine-5-carboxylic acid [3-(2-dimethylaminomethyl-1-methyl-1H-imidazo[4,5-c]quinolin-8-yl)-prop-2-ynyl]-amide], the IC50 is reported as 79 nM. Compound CCOc1cc(C(=O)NCC#Cc2ccc3ncc4ncn(C(C)C)c4c3c2)c(=O)n(Cc2ccc(F)c(F)c2)n1 [IV-1, 2-(3,4-difluorobenzyl)-6-ethoxy-3-oxo-2,3-dihydro-pyridazine-4-carboxylic acid [3-(1-isopropyl-1H-imidazo[4,5-c]quinolin-8-yl)-prop-2-ynyl]-amide] has an IC50 of 5 nM. CN1CCC(n2cnc3cnc4ccc(C#CCNC(=O)c5cc(Cl)nn(Cc6ccc(F)c(F)c6)c5=O)cc4c32)CC1 [III-14] gave an IC50 of 1 nM. CCc1c(C(=O)NCC#Cc2ccc3ncc4nc(C)n(C(C)C)c4c3c2)c(=O)n(Cc2ccc(F)c(F)c2)n1C [II-12] showed an IC50 of 5 nM. Cc1nc2cnc3ccc(C#CCNC(=O)c4cncn(Cc5ccc(F)c(F)c5)c4=O)cc3c2n1C(C)C [II-10] showed an IC50 of 2 nM. Work on Cc1nc2cnc3ccc(C#CCNC(=O)c4cccn([C@H](CO)c5ccc(F)c(F)c5)c4=O)cc3c2n1C(C)C [II-9] yielded an IC50 of 2 nM. Compound O=C(NCC#Cc1ccc2ncc3ncn(CCO)c3c2c1)c1cccn(Cc2ccc(F)c(F)c2)c1=O [III-11] has an IC50 of 18 nM. CCOc1nc2cnc3ccc(C#CCNC(=O)c4cncn(Cc5ccc(F)c(F)c5)c4=O)cc3c2n1C [V-1, 1-(3,4-difluoro-benzyl)-6-oxo-1,6-dihydro-pyrimidine-5-carboxylic acid [3-(2-ethoxy-1-methyl-1H-imidazo[4,5-c]quinolin-8-yl)-prop-2-ynyl]-amide] gave an IC50 of 33 nM. Cc1nc2cnc3ccc(C#CCNC(=O)c4cccn(CC5(O)CCCCC5)c4=O)cc3c2n1C(C)C [II-27] was tested, and the IC50 was 1100 nM. In the case of Cn1c(-c2ccccc2)nc2cnc3ccc(C#CCNC(=O)c4cncn(Cc5ccc(F)c(F)c5)c4=O)cc3c21 [V-2], the IC50 is reported as 72 nM. Cc1nc2cnc3ccc(C#CCNC(=O)c4cccn([C@H](C)C5CCCCC5)c4=O)cc3c2n1C(C)C [II-8] showed an IC50 of 507 nM. For NC[C@@H](c1ccccc1)n1cccc(C(=O)NCC#Cc2ccc3ncc4ncn(C5CCOC5)c4c3c2)c1=O (stereo partly drawn) [III-29], the IC50 was 681 nM. O=C(NCC#Cc1ccc2ncc3ncn([C@H]4CCCNC4)c3c2c1)c1cncn(Cc2ccc(F)c(F)c2)c1=O [I-12] showed an IC50 of 9 nM. Work on COc1cc(C(=O)NCC#Cc2ccc3ncc4nc(C)n(C(C)C)c4c3c2)c(=O)n(Cc2ccc(F)c(F)c2)n1 [II-19] yielded an IC50 of 1 nM. Compound Cc1nc2cnc3ccc(C#CCNC(=O)c4cccn(Cc5ccc(F)c(F)c5)c4=O)cc3c2n1C1CCN(C(C)C)CC1 [II-31] has an IC50 of 8 nM. Cc1nc2cnc3ccc(C#CCNC(=O)c4cc(Cl)nn(Cc5ccc(F)c(F)c5)c4=O)cc3c2n1C(C)C [II-4] was tested, and the IC50 was 5 nM. With Cc1nc2cnc3ccc(C#CCNC(=O)c4cncn(Cc5ccc(F)c(F)c5)c4=O)cc3c2n1CCN(C)C [III-13] the IC50 was 53 nM. Cc1nc2cnc3ccc(C#CCNC(=O)c4cccn([C@@H](CO)c5cccc(F)c5)c4=O)cc3c2n1[C@H]1CC[C@H](N(C)C)CC1 [III-24] was tested, and the IC50 was 3 nM. Compound Cc1nc2cnc3ccc(C#CCNC(=O)c4cccn([C@@H](C)c5ccc(F)c(F)c5)c4=O)cc3c2n1[C@H]1CC[C@@H](N(C)C)CC1 [III-5] has an IC50 of 1 nM. O=C(NCC#Cc1ccc2ncc3ncn(CCO)c3c2c1)c1cccn(Cc2ccccc2)c1=O [III-12] was tested, and the IC50 was 68 nM. In the case of Cc1nc2cnc3ccc(C#CCNC(=O)c4cccn([C@@H](CN)c5ccc(F)c(F)c5)c4=O)cc3c2n1C(C)C [II-30], the IC50 is reported as 2 nM. CCn1c(C)nc2cnc3ccc(C#CCNC(=O)c4cncn(Cc5ccc(F)c(F)c5)c4=O)cc3c21 [III-33] was tested, and the IC50 was 2 nM. Work on Cc1nc2cnc3ccc(C#CCNC(=O)c4cccn([C@@H](C)c5ccc(F)c(F)c5)c4=O)cc3c2n1[C@H]1CC[C@H](N(C)C)CC1 [III-23] yielded an IC50 of 1 nM. For Cc1nc2cnc3ccc(C#CCNC(=O)c4cccn(Cc5ccc(F)c(F)c5)c4=O)cc3c2n1C(C)C [II-3], the IC50 was 2 nM. O=C(NCC#Cc1ccc2ncc3ncn([C@H]4CCNC4)c3c2c1)c1cncn(Cc2ccc(F)c(F)c2)c1=O [I-15] was tested, and the IC50 was 28 nM. With CN(C)CCn1cnc2cnc3ccc(C#CCNC(=O)c4cncn(Cc5ccc(F)c(F)c5)c4=O)cc3c21 [I-5] the IC50 was 50 nM. Compound Cc1c(C(=O)NCC#Cc2ccc3ncc4ncn(C5CCN(C(C)C)CC5)c4c3c2)c(=O)n(Cc2ccc(F)c(F)c2)n1C [III-19] has an IC50 of 45 nM. Work on Cc1nc2cnc3ccc(C#CCNC(=O)c4cccn([C@@H](CN)c5ccccc5)c4=O)cc3c2n1C(C)C [II-22] yielded an IC50 of 16 nM. For CCN1CCC(n2cnc3cnc4ccc(C#CCNC(=O)c5c(C)n(C)n(Cc6ccc(F)c(F)c6)c5=O)cc4c32)CC1 [III-20], the IC50 was 32 nM. With CN(C)[C@H]1CC[C@@H](n2cnc3cnc4ccc(C#CCNC(=O)c5cccn([C@@H](CO)c6cccc(F)c6)c5=O)cc4c32)CC1 [III-27] the IC50 was 3 nM. Compound O=C(NCC#Cc1ccc2ncc3ncn([C@@H]4CCNC4)c3c2c1)c1cccn([C@H](CO)c2ccccc2)c1=O [III-1] has an IC50 of 18 nM. O=C(NCC#Cc1ccc2ncc3ncn(C4CCC4)c3c2c1)c1cncn(Cc2ccc(F)c(F)c2)c1=O [I-3] gave an IC50 of 4 nM. CCc1nc2cnc3ccc(C#CCNC(=O)c4cncn(Cc5ccc(F)c(F)c5)c4=O)cc3c2n1C [V-3] gave an IC50 of 8 nM. Cc1nc2cnc3ccc(C#CCNC(=O)c4cccn([C@@H](CO)c5cccc(F)c5)c4=O)cc3c2n1[C@H]1CC[C@@H](N(C)C)CC1 [III-25] was tested, and the IC50 was 4 nM. Cn1cnc2cnc3ccc(C#CCNC(=O)c4cncn(Cc5ccc(F)c(F)c5)c4=O)cc3c21 [III-30] showed an IC50 of 5 nM. Cc1nc2cnc3ccc(C#CCNC(=O)c4cccn(CC5C[C@@H]6CC[C@H]5C6)c4=O)cc3c2n1C(C)C (stereo partly drawn) [II-23] gave an IC50 of 15 nM. For O=C(NCC#Cc1ccc2ncc3ncn(C4CCNCC4)c3c2c1)c1cccn([C@H](CO)c2ccccc2)c1=O [III-8], the IC50 was 2010 nM. With O=C(NCC#Cc1ccc2ncc3ncn(CCCO)c3c2c1)c1cncn(Cc2ccc(F)c(F)c2)c1=O [I-4] the IC50 was 2 nM. Cc1nc2cnc3ccc(C#CCNC(=O)c4cccn([C@H](CO)c5cccc(F)c5)c4=O)cc3c2n1C(C)C [II-6] was tested, and the IC50 was 1 nM. CN1CC[C@H](n2cnc3cnc4ccc(C#CCNC(=O)c5cc(Cl)nn(Cc6ccc(F)c(F)c6)c5=O)cc4c32)C1 [III-16] was tested, and the IC50 was 11 nM. Compound Cc1nc2cnc3ccc(C#CCNC(=O)c4cccn(Cc5ccc(F)c(F)c5)c4=O)cc3c2n1C1CCN(C)CC1 [II-34] has an IC50 of 6 nM. Work on COc1nc2cnc3ccc(C#CCNC(=O)c4cncn(Cc5ccc(F)c(F)c5)c4=O)cc3c2n1C [V-4] yielded an IC50 of 18 nM. CC(C)N1CCC(n2cnc3cnc4ccc(C#CCNC(=O)c5cccn(Cc6ccc(F)c(F)c6)c5=O)cc4c32)CC1 [II-35] was tested, and the IC50 was 7 nM. Compound Cc1nc2cnc3ccc(C#CCNC(=O)c4cccn(CC5CCCCO5)c4=O)cc3c2n1C(C)C (stereo not drawn) [II-25] has an IC50 of 1020 nM. For CC(C)N1CCC(n2cnc3cnc4ccc(C#CCNC(=O)c5cncn(Cc6ccc(F)c(F)c6)c5=O)cc4c32)CC1 [I-11], the IC50 was 11 nM. CN(C)[C@H]1CC[C@H](n2cnc3cnc4ccc(C#CCNC(=O)c5cccn([C@@H](CO)c6cccc(F)c6)c5=O)cc4c32)CC1 [III-26] was tested, and the IC50 was 1 nM. Work on O=C(NCC#Cc1ccc2ncc3ncn(C4CCOC4)c3c2c1)c1cccn([C@@H](CO)c2cccc(F)c2)c1=O (stereo partly drawn) [III-22] yielded an IC50 of 7 nM.
